Assay results published in patent publication US20170081357A1, “[…] ACTIVE 17-NITROGEN SUBSTITUTED ESTRATREINTHIAZOLE DERIVATIVES AS INHIBITORS OF 17.BETA-HYDROXYSTEROID DEHYDROGENASE” (FORENDO PHARMA LTD, priority 2013, published 2017).

Experiments:
[1] = biological target: T1, recombinant human 17β-HSD1 (Homo sapiens, UniProt P14061); assay: Inhibition of recombinant human 17β-HSD1 (conversion of 3H-estrone to estradiol, HPLC); assay type: biochemical; details: inhibitor 1 μM; 30 nM estrone, 1 mM NADPH, 30 min at RT; read-out: 17β-HDS1 Inhibition % at 1 μM
T1 construct: made in house; host or cells: Sd9 (Sf9) insect cells, baculovirus (Bac to Bac Expression System); microsomal fraction
T1 sequence (P14061 1-328): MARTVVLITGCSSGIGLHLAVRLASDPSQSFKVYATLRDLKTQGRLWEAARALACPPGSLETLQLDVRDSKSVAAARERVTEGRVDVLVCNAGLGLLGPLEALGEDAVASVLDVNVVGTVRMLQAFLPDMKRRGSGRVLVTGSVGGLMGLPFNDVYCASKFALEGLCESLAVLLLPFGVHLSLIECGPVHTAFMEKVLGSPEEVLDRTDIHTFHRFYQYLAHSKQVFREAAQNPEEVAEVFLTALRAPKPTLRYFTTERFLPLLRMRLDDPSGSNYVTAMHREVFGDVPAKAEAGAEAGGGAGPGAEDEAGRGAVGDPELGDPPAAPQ
Method in brief: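 Microsomal recombinant human 17β-HSD1 (1 μg/ml) from insect cells incubated 30 min at RT in 20 mM KH2PO4 pH 7.4 with 30 nM 3H-estrone, 1 mM NADPH and inhibitor at 1 μM or 0.1 μM (1% DMSO). Estrone/estradiol separated by reverse-phase HPLC with radioactivity flow detection; % inhibition = 100 − % conversion.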

[2] = biological target: T2, recombinant human 17β-HSD2 (Homo sapiens, UniProt P37059); assay: Inhibition of recombinant human 17β-HSD2 (conversion of 3H-estradiol to estrone, HPLC); assay type: biochemical; details: inhibitor 1 μM; 50 nM estradiol, 1 mM NADH, 30 min at RT
T2 construct: made in house; host or cells: Sd9 (Sf9) insect cells, baculovirus (Bac to Bac Expression System); fractionated cell extract
T2 sequence (P37059 1-387): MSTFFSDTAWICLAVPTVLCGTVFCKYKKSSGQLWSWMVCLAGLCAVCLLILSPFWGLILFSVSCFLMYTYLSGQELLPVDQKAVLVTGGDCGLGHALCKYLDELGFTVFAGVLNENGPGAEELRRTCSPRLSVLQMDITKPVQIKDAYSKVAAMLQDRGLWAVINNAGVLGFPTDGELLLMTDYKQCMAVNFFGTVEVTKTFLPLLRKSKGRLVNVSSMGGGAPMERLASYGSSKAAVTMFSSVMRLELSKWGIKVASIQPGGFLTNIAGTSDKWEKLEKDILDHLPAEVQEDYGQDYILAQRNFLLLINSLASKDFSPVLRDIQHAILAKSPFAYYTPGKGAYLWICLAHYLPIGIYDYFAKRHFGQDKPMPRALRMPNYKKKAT
Method in brief: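 Baculovirus/Sf9-expressed enzyme in detergent-solubilised membrane extract, 4 μg/ml, incubated 30 min at RT in 20 mM KH2PO4 pH 8.5 with 50 nM estradiol (³H-tracer) and 1 mM NADH; inhibitor at 1 μM or 0.1 μM, 1% DMSO final. TCA-stopped; estrone/estradiol separated by reverse-phase HPLC with flow scintillation; % inhibition = 100 − % conversion.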

[3] = Metabolic stability assay, human liver microsome and homogenate incubations; assay type: in vitro ADME; details: human liver homogenate or microsomes, LC/PDA/TOF-MS
Description: The in vitro metabolic stability of the compounds of the invention was determined for exemplified compounds using human liver microsome and homogenate incubations. The incubation time points used with or without appropriate cofactors were 0 min and 60 min. Samples were collected at both time points and substrates were detected using LC/PDA/TOF-MS. In vitro metabolic stability (% remaining after 60 min in human liver homogenate or microsomes) of the compounds were calculated and the results are summarized in Table 3.

CO/N=C1\C[C@@H](CCC(=O)Nc2ncc(C)s2)C2C3CCc4c(ccc(O)c4F)C3CC[C@]12C (stereo partly drawn) [Compound 92, 3-{(13S,15R)-4-Fluoro-3-hydroxy-17-[(E)-methoxyimino]-13-methyl-7,8,9,11,12,13,14,15,16,17-decahydro-6H-cyclopenta[a]phenanthren-15-yl}-N-(5-methylthiazol-2-yl)propanamide]
inhibition at 1 µM [1]: 90%
inhibition at 1 µM [2]: 7%
In vitro metabolic stability, % remaining after 60 min [3]: 68%
